Experimental data reported in ChEMBL document CHEMBL5465560, “Selectivity Literature for EUbOPEN Chemogenomic Library” (2024).

Legend:
[1] = target: Proto-oncogene tyrosine-protein kinase ROS (Homo sapiens) (UniProt P08922); conditions: at 10 µM
[2] = target: Mitogen-activated protein kinase kinase kinase kinase 4 (Homo sapiens, UniProt O95819); test: Selectivity interaction (KinomeScan (DiscoverX)) EUB0000229b MAP4K4; conditions: at 10 µM
[3] = target: Insulin-like growth factor 1 receptor (Homo sapiens, UniProt P08069); test: Selectivity interaction (KinomeScan (DiscoverX)) EUB0000092b IGF1R; conditions: at 10 µM
Insulin-like growth factor 1 receptor, sequence (P08069 31-736 limits assumed): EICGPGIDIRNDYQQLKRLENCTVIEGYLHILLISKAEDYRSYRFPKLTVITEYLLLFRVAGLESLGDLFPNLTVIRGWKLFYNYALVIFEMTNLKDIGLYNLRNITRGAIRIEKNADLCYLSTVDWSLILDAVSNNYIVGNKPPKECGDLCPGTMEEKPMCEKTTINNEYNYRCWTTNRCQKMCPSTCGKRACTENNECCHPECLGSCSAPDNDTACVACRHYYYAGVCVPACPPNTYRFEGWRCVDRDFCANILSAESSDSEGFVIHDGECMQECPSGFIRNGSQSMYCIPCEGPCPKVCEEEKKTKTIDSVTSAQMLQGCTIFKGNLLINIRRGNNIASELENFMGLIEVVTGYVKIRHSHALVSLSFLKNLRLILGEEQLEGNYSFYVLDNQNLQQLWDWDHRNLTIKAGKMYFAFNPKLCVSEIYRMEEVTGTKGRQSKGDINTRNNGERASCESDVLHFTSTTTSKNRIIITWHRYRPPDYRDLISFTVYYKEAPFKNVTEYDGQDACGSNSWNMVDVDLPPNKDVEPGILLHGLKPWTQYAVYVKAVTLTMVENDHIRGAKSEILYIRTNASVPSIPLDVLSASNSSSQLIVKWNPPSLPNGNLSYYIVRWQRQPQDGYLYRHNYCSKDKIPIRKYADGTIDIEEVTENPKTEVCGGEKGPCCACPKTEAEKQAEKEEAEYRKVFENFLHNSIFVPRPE
Insulin-like growth factor 1 receptor, sequence (P08069 741-1367 limits assumed): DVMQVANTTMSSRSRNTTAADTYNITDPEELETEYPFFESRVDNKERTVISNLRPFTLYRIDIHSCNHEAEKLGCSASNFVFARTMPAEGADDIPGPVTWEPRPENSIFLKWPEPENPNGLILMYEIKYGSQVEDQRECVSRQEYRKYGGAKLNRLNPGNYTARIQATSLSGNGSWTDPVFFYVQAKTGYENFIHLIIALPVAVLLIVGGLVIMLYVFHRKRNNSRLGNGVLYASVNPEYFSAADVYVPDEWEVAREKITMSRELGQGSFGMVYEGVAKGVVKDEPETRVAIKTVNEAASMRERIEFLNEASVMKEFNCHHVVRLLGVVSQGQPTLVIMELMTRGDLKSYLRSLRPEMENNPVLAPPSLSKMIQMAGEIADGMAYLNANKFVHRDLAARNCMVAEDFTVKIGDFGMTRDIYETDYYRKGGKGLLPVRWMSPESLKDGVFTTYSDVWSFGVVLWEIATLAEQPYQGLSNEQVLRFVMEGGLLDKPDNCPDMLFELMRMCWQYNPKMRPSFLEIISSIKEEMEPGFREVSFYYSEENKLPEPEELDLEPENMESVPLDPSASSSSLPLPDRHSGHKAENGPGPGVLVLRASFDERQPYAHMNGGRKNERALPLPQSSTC

[4] = target: T1, Dual specificity mitogen-activated protein kinase kinase 7 (Homo sapiens) (UniProt O14733); test: Selectivity interaction (ProQinase) EUB0000171b MAP2K7
T1 sequence (whole entry): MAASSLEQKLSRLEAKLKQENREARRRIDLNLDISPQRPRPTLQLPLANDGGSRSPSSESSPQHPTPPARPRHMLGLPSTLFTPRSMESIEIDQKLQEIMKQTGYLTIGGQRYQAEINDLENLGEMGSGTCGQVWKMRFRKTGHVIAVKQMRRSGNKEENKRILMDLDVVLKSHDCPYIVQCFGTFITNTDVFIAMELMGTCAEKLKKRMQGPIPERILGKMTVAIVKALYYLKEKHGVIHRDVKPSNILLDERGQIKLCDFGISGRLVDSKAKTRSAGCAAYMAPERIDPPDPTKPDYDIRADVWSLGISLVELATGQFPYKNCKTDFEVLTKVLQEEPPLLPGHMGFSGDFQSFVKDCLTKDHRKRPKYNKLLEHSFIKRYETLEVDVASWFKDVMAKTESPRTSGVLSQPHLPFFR

[5] = target: MAP kinase-activated protein kinase 2 (Homo sapiens, UniProt P49137); test: Selectivity interaction (KinomeScan (DiscoverX)) EUB0000666a MAPKAPK2; conditions: at 10 µM
[6] = target: T2, Mitogen-activated protein kinase 15 (Homo sapiens) (UniProt Q8TD08); test: Selectivity interaction (KinomeScan (DiscoverX)) EUB0000666a MAPK15; conditions: at 10 µM
T2 sequence (whole entry): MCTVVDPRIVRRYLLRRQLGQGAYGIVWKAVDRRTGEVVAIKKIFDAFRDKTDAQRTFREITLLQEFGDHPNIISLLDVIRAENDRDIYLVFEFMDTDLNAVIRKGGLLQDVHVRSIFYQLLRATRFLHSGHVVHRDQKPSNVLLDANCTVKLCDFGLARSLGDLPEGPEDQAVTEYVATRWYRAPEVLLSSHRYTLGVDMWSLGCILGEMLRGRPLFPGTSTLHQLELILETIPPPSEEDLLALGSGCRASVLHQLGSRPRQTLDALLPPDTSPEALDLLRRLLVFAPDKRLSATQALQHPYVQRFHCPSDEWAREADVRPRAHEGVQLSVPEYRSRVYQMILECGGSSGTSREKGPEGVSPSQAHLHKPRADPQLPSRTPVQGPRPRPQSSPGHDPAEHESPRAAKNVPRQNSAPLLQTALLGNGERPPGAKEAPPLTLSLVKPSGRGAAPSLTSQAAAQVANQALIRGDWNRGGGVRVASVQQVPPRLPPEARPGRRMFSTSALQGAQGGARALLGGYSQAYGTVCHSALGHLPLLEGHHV

[7] = target: Bromodomain-containing protein 3 (Homo sapiens) (UniProt Q15059); test: Selectivity interaction (Bromodomain panel (DSF asssay)) EUB0000270b BRD3
[8] = target: T3, Tyrosine-protein kinase Tec (Homo sapiens) (UniProt P42680); test: Selectivity interaction (ActivX KiNativ screen (kinase selectivity in THP-1 cell lysates)) EUB0000639a TEC; type: subcellular; conditions: lysate, at 0.04 µM
T3 sequence (whole entry): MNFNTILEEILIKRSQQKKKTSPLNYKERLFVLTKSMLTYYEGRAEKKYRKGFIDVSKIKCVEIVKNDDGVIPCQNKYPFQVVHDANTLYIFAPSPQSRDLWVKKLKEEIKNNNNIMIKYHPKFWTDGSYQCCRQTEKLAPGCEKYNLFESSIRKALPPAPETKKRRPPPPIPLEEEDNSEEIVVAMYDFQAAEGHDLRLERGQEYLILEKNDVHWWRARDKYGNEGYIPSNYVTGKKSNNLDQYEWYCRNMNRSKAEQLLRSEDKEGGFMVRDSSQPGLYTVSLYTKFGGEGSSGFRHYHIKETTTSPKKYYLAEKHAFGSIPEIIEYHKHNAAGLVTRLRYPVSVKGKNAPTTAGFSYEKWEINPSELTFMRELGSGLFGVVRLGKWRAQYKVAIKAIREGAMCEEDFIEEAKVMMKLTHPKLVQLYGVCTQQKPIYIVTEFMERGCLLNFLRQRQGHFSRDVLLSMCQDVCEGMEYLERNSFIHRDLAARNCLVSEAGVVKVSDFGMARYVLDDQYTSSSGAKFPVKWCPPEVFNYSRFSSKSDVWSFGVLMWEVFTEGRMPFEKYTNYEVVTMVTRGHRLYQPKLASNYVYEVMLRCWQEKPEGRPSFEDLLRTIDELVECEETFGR

[9] = target: T4, Serine/threonine-protein kinase RIO3 (Homo sapiens) (UniProt O14730); test: Selectivity interaction (KinomeScan (DiscoverX)) EUB0000595a RIOK3; conditions: at 10 µM
T4 sequence (whole entry): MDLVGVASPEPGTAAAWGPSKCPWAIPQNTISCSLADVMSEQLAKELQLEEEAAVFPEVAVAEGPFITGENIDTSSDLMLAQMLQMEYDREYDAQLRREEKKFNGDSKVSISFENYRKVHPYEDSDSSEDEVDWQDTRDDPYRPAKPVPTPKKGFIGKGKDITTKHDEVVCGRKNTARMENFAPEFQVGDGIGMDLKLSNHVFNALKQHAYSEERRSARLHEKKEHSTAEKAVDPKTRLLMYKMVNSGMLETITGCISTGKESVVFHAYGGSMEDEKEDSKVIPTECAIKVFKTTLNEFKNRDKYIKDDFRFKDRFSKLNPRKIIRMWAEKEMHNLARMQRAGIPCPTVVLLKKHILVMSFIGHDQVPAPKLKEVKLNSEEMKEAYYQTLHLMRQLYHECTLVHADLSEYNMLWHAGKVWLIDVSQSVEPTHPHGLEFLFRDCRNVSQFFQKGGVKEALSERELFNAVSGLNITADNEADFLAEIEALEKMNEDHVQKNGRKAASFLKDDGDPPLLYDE

[10] = target: Serine/threonine-protein kinase 35 (Homo sapiens) (UniProt Q8TDR2); test: Selectivity interaction (Ambit KINOMEscan and KiNATiv profiling in Jurkat cells) EUB0000090b STK35; type: cell-based; conditions: at 1 µM
Serine/threonine-protein kinase 35 (Homo sapiens), sequence (Q8TDR2 whole entry): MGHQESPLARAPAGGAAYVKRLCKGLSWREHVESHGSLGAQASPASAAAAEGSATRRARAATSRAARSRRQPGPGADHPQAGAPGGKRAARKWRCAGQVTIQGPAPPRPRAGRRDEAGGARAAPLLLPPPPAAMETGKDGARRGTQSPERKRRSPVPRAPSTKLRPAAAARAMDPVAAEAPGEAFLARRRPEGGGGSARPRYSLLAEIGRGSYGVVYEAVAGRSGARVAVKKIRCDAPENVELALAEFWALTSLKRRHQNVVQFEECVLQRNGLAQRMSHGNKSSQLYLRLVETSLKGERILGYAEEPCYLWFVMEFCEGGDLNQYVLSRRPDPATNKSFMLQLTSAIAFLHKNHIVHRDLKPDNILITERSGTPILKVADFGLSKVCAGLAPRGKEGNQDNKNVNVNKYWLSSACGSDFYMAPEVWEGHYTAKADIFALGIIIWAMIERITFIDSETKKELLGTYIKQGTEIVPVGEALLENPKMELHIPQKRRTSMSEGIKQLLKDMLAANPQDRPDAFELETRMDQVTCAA

[11] = target: Cyclin-dependent kinase 8 (Homo sapiens, UniProt P49336); test: Selectivity interaction (Ambit KINOMEscan and KiNATiv profiling in Jurkat cells) EUB0000090b CDK8; type: cell-based; conditions: at 1 µM
[12] = target: Mitogen-activated protein kinase 9 (Homo sapiens, UniProt P45984); test: Selectivity interaction (Kinase screening (Upstate/Millipore)) EUB0000604a MAPK9
[13] = target: Mitogen-activated protein kinase kinase kinase kinase 1 (Homo sapiens) (UniProt Q92918); test: Selectivity interaction (ActivX KiNativ screen (ex vivo kinase selectivity in human PBMCs)) EUB0001619a MAP4K1; type: cell-based; conditions: PBMC, at 1 µM
Mitogen-activated protein kinase kinase kinase kinase 1 (Homo sapiens), sequence (Q92918 whole entry, looked up): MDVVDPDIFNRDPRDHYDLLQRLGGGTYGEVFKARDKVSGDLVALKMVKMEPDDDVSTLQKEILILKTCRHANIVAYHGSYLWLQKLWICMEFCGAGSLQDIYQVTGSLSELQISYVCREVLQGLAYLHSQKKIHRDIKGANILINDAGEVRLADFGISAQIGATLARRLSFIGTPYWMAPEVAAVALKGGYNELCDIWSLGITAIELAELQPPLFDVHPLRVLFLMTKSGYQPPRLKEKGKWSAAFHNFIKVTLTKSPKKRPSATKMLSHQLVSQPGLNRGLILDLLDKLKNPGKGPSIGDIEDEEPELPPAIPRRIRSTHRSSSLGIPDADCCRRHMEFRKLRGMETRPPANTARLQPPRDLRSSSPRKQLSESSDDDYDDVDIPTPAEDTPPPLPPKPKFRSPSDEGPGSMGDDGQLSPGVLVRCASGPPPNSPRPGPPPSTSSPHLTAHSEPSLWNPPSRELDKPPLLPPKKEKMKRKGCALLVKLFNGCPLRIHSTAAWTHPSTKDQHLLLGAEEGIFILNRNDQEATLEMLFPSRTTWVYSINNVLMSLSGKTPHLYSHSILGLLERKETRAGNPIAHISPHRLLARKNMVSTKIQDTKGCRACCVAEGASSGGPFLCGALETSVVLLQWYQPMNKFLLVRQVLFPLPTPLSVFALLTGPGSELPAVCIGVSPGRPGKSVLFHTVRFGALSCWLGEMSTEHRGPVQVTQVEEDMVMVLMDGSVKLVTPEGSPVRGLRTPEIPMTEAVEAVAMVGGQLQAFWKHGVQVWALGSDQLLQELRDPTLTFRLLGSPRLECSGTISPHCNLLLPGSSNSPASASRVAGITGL

Proto-oncogene tyrosine-protein kinase ROS (Homo sapiens), sequence (P08922 whole entry): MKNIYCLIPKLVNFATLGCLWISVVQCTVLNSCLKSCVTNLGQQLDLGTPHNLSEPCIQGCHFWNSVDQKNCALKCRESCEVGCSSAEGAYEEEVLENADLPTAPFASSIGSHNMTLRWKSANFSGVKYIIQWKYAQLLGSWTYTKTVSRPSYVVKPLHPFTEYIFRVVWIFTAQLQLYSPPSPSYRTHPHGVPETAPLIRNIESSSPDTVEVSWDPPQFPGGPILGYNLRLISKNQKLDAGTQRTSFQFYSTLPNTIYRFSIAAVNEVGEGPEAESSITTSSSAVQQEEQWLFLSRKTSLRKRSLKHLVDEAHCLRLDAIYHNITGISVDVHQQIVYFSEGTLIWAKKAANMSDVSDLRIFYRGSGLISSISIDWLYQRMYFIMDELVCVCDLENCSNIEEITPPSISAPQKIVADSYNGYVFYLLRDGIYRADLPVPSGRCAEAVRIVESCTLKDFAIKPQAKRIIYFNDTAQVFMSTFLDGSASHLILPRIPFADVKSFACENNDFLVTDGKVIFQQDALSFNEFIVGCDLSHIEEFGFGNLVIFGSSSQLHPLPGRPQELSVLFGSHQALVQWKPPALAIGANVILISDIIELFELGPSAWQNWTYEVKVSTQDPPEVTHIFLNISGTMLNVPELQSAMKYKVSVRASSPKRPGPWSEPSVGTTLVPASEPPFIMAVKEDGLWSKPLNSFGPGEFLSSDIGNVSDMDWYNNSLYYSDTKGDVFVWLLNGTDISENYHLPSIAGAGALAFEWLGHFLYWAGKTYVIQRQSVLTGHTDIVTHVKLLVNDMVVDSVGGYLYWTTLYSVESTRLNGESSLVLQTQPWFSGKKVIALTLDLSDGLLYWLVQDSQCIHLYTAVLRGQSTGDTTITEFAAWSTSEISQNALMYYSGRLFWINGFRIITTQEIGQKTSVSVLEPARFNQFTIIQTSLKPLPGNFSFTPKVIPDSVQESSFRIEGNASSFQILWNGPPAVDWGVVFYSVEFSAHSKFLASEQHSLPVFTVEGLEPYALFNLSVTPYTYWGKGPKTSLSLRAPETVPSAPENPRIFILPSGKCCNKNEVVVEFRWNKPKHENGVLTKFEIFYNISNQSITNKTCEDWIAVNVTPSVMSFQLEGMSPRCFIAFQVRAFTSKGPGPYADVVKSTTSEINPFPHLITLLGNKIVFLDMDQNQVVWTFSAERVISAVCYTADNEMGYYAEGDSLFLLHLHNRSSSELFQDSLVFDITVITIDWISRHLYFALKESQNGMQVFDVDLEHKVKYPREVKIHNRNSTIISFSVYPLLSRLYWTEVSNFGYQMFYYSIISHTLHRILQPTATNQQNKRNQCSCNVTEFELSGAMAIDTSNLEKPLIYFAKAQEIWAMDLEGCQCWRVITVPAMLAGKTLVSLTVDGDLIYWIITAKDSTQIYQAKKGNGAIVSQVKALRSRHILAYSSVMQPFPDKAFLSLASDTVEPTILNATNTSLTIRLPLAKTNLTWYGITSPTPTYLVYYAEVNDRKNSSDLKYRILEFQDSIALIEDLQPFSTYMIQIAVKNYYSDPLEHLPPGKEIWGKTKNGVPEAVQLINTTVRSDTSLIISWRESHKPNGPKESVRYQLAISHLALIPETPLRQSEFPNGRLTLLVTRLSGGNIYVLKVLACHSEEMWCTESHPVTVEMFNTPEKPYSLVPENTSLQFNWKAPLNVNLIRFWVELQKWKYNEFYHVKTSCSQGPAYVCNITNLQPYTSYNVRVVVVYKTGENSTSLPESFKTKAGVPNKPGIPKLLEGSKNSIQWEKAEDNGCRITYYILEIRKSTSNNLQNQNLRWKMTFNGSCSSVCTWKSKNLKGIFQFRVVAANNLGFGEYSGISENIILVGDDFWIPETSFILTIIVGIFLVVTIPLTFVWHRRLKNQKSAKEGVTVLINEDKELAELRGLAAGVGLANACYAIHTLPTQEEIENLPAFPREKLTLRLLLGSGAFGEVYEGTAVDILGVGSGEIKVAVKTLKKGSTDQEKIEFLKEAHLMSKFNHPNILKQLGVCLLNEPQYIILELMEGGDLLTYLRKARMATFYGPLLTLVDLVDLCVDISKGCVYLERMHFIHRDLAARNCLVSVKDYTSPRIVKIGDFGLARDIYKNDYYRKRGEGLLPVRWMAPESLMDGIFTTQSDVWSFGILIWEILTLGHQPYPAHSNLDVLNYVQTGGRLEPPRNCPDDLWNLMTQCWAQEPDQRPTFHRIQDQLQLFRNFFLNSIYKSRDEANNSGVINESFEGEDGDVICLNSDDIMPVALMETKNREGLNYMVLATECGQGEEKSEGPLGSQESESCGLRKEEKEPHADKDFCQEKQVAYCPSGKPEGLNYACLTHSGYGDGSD

Q: CCN(CC)CCCCNc1ncc2cc(-c3cc(OC)cc(OC)c3)c(NC(=O)NC(C)(C)C)nc2n1 was tested. Which % of control [1] did it give?
A: Its % of control is 100%.

Q: COc1cc(N(C)c2ccnc3ccc(C(F)(F)F)cc23)cc(OC)c1OC was tested. Which % binding [2] did it give?
A: The % binding was 86%.

Q: CCC(=O)N1CCN(c2ccc(-n3c(=O)ccc4cnc5ccc(-c6cnc7ccccc7c6)cc5c43)cc2C(F)(F)F)CC1 was tested. Which % of control [3] did it give?
A: Its % of control is 94%.

Q: With C=CC(=O)Nc1cccc(C(=O)Nc2ccc(Nc3cc(-c4[nH]c(SC)nc4C)ccn3)cc2)c1 as the molecule, how does the % of control ([4]; at 1 µM) read?
A: The % of control was 45%.

Q: What about the % of control ([4]; at 5 µM) of the same molecule?
A: The % of control was 39%.

Q: Which results are given for O=C(NOC[C@H](O)CO)c1ccc(F)c(F)c1Nc1ccc(I)cc1F?
A: % of control [5]: 84%; % of control [6]: 100%

Q: With Cc1cc(CN)cc(C)c1-c1ncn(C)c1-c1cncn1C as the molecule, how does the dTM [7] read?
A: The dTM was -1.78 K.

Q: For CC[C@@H]1[C@H](F)C(=O)N[C@@H]1COc1nccc2cc(C(N)=O)c(OC)cc12 [ZIMLOVISERTIB], which % of inhibition [8] is on record?
A: Its % of inhibition is -59.8%.

Q: For COCC(=O)NC/C=C/c1ccc2ncnc(Nc3ccc(Oc4ccc(C)nc4)c(C)c3)c2c1 [CP-724714], which % of control [9] is on record?
A: Its % of control is 100%.

Q: With CN(C)C/C=C/C(=O)Nc1ccc(C(=O)N2CCCC(Nc3ncc(Cl)c(-c4c[nH]c5ccccc45)n3)C2)cc1 (centres undefined) as the molecule, how does the % of control [10] read?
A: Its % of control is 95%.

Q: What about the % of control [11] of the same molecule?
A: The % of control was 100%.

Q: How did the % of inhibition [12] turn out when Cc1cnc(Nc2ccc(F)cc2Cl)nc1-c1c[nH]c(C(=O)N[C@H](CO)c2cccc(Cl)c2)c1 was run?
A: Its % of inhibition is 43%.

Q: For N#Cc1cccc(-c2c[nH]c3ncnc(N4CCOCC4)c23)c1, which % of inhibition [13] is on record?
A: Its % of inhibition is 6%.
